# Experimental data from patent publication US20110039721A1, “METHOD FOR PREDICTION ABOUT CARCINOGENICITY OF SUBSTANCE IN RODENT” (Chemicals Evaluation and Research Institute, priority 2007, published 2011).
# Legend:
# [1] = test system: mRNA expressed from the genes (A) to (D) in rat liver; assay: Behavior of genes (mRNA expression level, oligo-DNA microarray) in rat liver after 28-day oral administration; type: in vivo
# Method in brief: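 Male F344 SPF rats, 5 weeks old, four per group, received carcinogens, non-carcinogens or solvent vehicle by oral gavage once daily for 28 days. Liver total RNA was then extracted. Changes of ≥1.5-fold or ≤1/1.5 versus vehicle control, in a consistent direction across carcinogens, counted as significant.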
# [2] = test system: liver; conditions: in vivo; cited from earlier work
# [3] = test system: rodent; conditions: in vivo; cited from earlier work
# [4] = (A), Unigene Rn.144554, defined direction +, rat liver, oral once daily 28 days
# [5] = (A), Unigene Rn.167075, defined direction +, rat liver, oral once daily 28 days, significant = 1.5 times or more or 1/1.5 or less of control
# [6] = (A), Unigene Rn.167075, defined direction −, rat liver, oral once daily 28 days
# [7] = (A), Unigene Rn.5834, defined direction +, rat liver, oral once daily 28 days
# [8] = (A), Unigene Rn.9836, defined direction +, rat liver, oral once daily 28 days
# [9] = (B), Unigene Rn.1430, defined direction −, rat liver, oral once daily 28 days
# [10] = (B), Unigene Rn.19329, defined direction +, rat liver, oral once daily 28 days
# [11] = (B), Unigene Rn.21240, defined direction +, rat liver, oral once daily 28 days
# [12] = (C), Unigene Rn.106184, defined direction +, rat liver, oral once daily 28 days
# [13] = (C), Unigene Rn.108075, defined direction −, rat liver, oral once daily 28 days
# [14] = (C), Unigene Rn.11766, defined direction +, rat liver, oral once daily 28 days
# [15] = (C), Unigene Rn.118529, defined direction −, rat liver, oral once daily 28 days
# [16] = (C), Unigene Rn.119024, defined direction −, rat liver, oral once daily 28 days
# [17] = (C), Unigene Rn.120914, defined direction +, rat liver, oral once daily 28 days
# [18] = (C), Unigene Rn.123063, defined direction −, rat liver, oral once daily 28 days
# [19] = (C), Unigene Rn.143213, defined direction −, rat liver, oral once daily 28 days
# [20] = (C), Unigene Rn.144946, defined direction −, rat liver, oral once daily 28 days
# [21] = (C), Unigene Rn.14744, defined direction −, rat liver, oral once daily 28 days
# [22] = (C), Unigene Rn.1647, defined direction −, rat liver, oral once daily 28 days
# [23] = (C), Unigene Rn.164817, defined direction +, rat liver, oral once daily 28 days
# [24] = (C), Unigene Rn.167685, defined direction −, rat liver, oral once daily 28 days
# [25] = (C), Unigene Rn.185941, defined direction −, rat liver, oral once daily 28 days
# [26] = (C), Unigene Rn.18728, defined direction −, rat liver, oral once daily 28 days
# [27] = (C), Unigene Rn.201760, defined direction +, rat liver, oral once daily 28 days
# [28] = (C), Unigene Rn.23969, defined direction +, rat liver, oral once daily 28 days
# [29] = (C), Unigene Rn.24561, defined direction −, rat liver, oral once daily 28 days
# [30] = (C), Unigene Rn.43232, defined direction −, rat liver, oral once daily 28 days
# [31] = (C), Unigene Rn.4620, defined direction +, rat liver, oral once daily 28 days
# [32] = (C), Unigene Rn.9757, defined direction +, rat liver, oral once daily 28 days
# [33] = (C), Unigene Rn.9779, defined direction +, rat liver, oral once daily 28 days
# [34] = (C), Unigene Rn.9862, defined direction −, rat liver, oral once daily 28 days
# [35] = (D), Unigene Rn.9939, defined direction −, rat liver, oral once daily 28 days
compound,measurement,setting,value
"c1ccoc1 [TS028, Furan]","Behavior of gene caused by administration of chemical substance, Gene No. 4846",[1]; [4],+
same,"Behavior of gene caused by administration of chemical substance, Gene No. 4218",[1]; [5],+
same,"Behavior of gene caused by administration of chemical substance, Gene No. 2026",[1]; [6],+
same,"Behavior of gene caused by administration of chemical substance, Gene No. 6182",[1]; [7],+
same,"Behavior of gene caused by administration of chemical substance, Gene No. 5600",[1]; [8],+
same,"Behavior of gene caused by administration of chemical substance, Gene No. 1494",[1]; [9],+
same,"Behavior of gene caused by administration of chemical substance, Gene No. 2045",[1]; [10],−
same,"Behavior of gene caused by administration of chemical substance, Gene No. 2203",[1]; [11],−
same,"Behavior of gene caused by administration of chemical substance, Gene No. 533",[1]; [12],+
same,"Behavior of gene caused by administration of chemical substance, Gene No. 725",[1]; [13],−
same,"Behavior of gene caused by administration of chemical substance, Gene No. 1163",[1]; [14],−
same,"Behavior of gene caused by administration of chemical substance, Gene No. 4973",[1]; [15],+
same,"Behavior of gene caused by administration of chemical substance, Gene No. 4095",[1]; [16],+
same,"Behavior of gene caused by administration of chemical substance, Gene No. 1334",[1]; [17],−
same,"Behavior of gene caused by administration of chemical substance, Gene No. 6620",[1]; [17],−
same,"Behavior of gene caused by administration of chemical substance, Gene No. 6303",[1]; [18],+
same,"Behavior of gene caused by administration of chemical substance, Gene No. 5878",[1]; [19],+
same,"Behavior of gene caused by administration of chemical substance, Gene No. 1131",[1]; [20],−
same,"Behavior of gene caused by administration of chemical substance, Gene No. 1562",[1]; [21],+
same,"Behavior of gene caused by administration of chemical substance, Gene No. 1741",[1]; [22],+
same,"Behavior of gene caused by administration of chemical substance, Gene No. 893",[1]; [23],−
same,"Behavior of gene caused by administration of chemical substance, Gene No. 6026",[1]; [24],−
same,"Behavior of gene caused by administration of chemical substance, Gene No. 154",[1]; [25],+
same,"Behavior of gene caused by administration of chemical substance, Gene No. 1993",[1]; [26],+
same,"Behavior of gene caused by administration of chemical substance, Gene No. 813",[1]; [27],+
same,"Behavior of gene caused by administration of chemical substance, Gene No. 2494",[1]; [28],−
same,"Behavior of gene caused by administration of chemical substance, Gene No. 2546",[1]; [29],−
same,"Behavior of gene caused by administration of chemical substance, Gene No. 3776",[1]; [30],+
same,"Behavior of gene caused by administration of chemical substance, Gene No. 3929",[1]; [31],+
same,"Behavior of gene caused by administration of chemical substance, Gene No. 1119",[1]; [32],+
same,"Behavior of gene caused by administration of chemical substance, Gene No. 6742",[1]; [33],+
same,"Behavior of gene caused by administration of chemical substance, Gene No. 5634",[1]; [34],+
same,"Behavior of gene caused by administration of chemical substance, Gene No. 5726",[1]; [35],−
same,Liver carcinogenicity,[2],Cr+
same,Carcinogenicity,[3],C+
"CC(=N)S [TS030, Thioacetoamide]","Behavior of gene caused by administration of chemical substance, Gene No. 4846",[1]; [4],+
same,"Behavior of gene caused by administration of chemical substance, Gene No. 4218",[1]; [5],+
same,"Behavior of gene caused by administration of chemical substance, Gene No. 2026",[1]; [6],+
same,"Behavior of gene caused by administration of chemical substance, Gene No. 6182",[1]; [7],+
same,"Behavior of gene caused by administration of chemical substance, Gene No. 5600",[1]; [8],+
same,"Behavior of gene caused by administration of chemical substance, Gene No. 1494",[1]; [9],+
same,"Behavior of gene caused by administration of chemical substance, Gene No. 2045",[1]; [10],−
same,"Behavior of gene caused by administration of chemical substance, Gene No. 2203",[1]; [11],−
same,"Behavior of gene caused by administration of chemical substance, Gene No. 533",[1]; [12],+
same,"Behavior of gene caused by administration of chemical substance, Gene No. 725",[1]; [13],+
same,"Behavior of gene caused by administration of chemical substance, Gene No. 1163",[1]; [14],−
same,"Behavior of gene caused by administration of chemical substance, Gene No. 4973",[1]; [15],+
same,"Behavior of gene caused by administration of chemical substance, Gene No. 4095",[1]; [16],+
same,"Behavior of gene caused by administration of chemical substance, Gene No. 1334",[1]; [17],−
same,"Behavior of gene caused by administration of chemical substance, Gene No. 6620",[1]; [17],−
same,"Behavior of gene caused by administration of chemical substance, Gene No. 6303",[1]; [18],+
same,"Behavior of gene caused by administration of chemical substance, Gene No. 5878",[1]; [19],−
same,"Behavior of gene caused by administration of chemical substance, Gene No. 1131",[1]; [20],−
same,"Behavior of gene caused by administration of chemical substance, Gene No. 1562",[1]; [21],+
same,"Behavior of gene caused by administration of chemical substance, Gene No. 1741",[1]; [22],+
same,"Behavior of gene caused by administration of chemical substance, Gene No. 893",[1]; [23],+
same,"Behavior of gene caused by administration of chemical substance, Gene No. 6026",[1]; [24],−
same,"Behavior of gene caused by administration of chemical substance, Gene No. 154",[1]; [25],+
same,"Behavior of gene caused by administration of chemical substance, Gene No. 1993",[1]; [26],+
same,"Behavior of gene caused by administration of chemical substance, Gene No. 813",[1]; [27],+
same,"Behavior of gene caused by administration of chemical substance, Gene No. 2494",[1]; [28],+
same,"Behavior of gene caused by administration of chemical substance, Gene No. 2546",[1]; [29],−
same,"Behavior of gene caused by administration of chemical substance, Gene No. 3776",[1]; [30],+
same,"Behavior of gene caused by administration of chemical substance, Gene No. 3929",[1]; [31],−
same,"Behavior of gene caused by administration of chemical substance, Gene No. 1119",[1]; [32],−
same,"Behavior of gene caused by administration of chemical substance, Gene No. 6742",[1]; [33],−
same,"Behavior of gene caused by administration of chemical substance, Gene No. 5634",[1]; [34],−
same,"Behavior of gene caused by administration of chemical substance, Gene No. 5726",[1]; [35],+
same,Liver carcinogenicity,[2],Cr+
same,Carcinogenicity,[3],C+
"OCCCl [TS032, 2-Chloroethanol]","Behavior of gene caused by administration of chemical substance, Gene No. 154","[1]; rat, in vivo",−
same,"Behavior of gene caused by administration of chemical substance, Gene No. 533","[1]; rat, in vivo",−
same,"Behavior of gene caused by administration of chemical substance, Gene No. 725","[1]; rat, in vivo",−
same,"Behavior of gene caused by administration of chemical substance, Gene No. 813","[1]; rat, in vivo",−
same,"Behavior of gene caused by administration of chemical substance, Gene No. 893","[1]; rat, in vivo",−
same,"Behavior of gene caused by administration of chemical substance, Gene No. 1119","[1]; rat, in vivo",−
same,"Behavior of gene caused by administration of chemical substance, Gene No. 1131","[1]; rat, in vivo",−
same,"Behavior of gene caused by administration of chemical substance, Gene No. 1163","[1]; rat, in vivo",−
same,"Behavior of gene caused by administration of chemical substance, Gene No. 1334","[1]; rat, in vivo",−
same,"Behavior of gene caused by administration of chemical substance, Gene No. 1494","[1]; rat, in vivo",−
same,"Behavior of gene caused by administration of chemical substance, Gene No. 1562","[1]; rat, in vivo",−
same,"Behavior of gene caused by administration of chemical substance, Gene No. 1741","[1]; rat, in vivo",−
same,"Behavior of gene caused by administration of chemical substance, Gene No. 1993","[1]; rat, in vivo",−
same,"Behavior of gene caused by administration of chemical substance, Gene No. 2026","[1]; rat, in vivo",−
same,"Behavior of gene caused by administration of chemical substance, Gene No. 2045","[1]; rat, in vivo",−
same,"Behavior of gene caused by administration of chemical substance, Gene No. 2203","[1]; rat, in vivo",−
same,"Behavior of gene caused by administration of chemical substance, Gene No. 2494","[1]; rat, in vivo",−
same,"Behavior of gene caused by administration of chemical substance, Gene No. 2546","[1]; rat, in vivo",−
same,"Behavior of gene caused by administration of chemical substance, Gene No. 3776","[1]; rat, in vivo",−
same,"Behavior of gene caused by administration of chemical substance, Gene No. 3929","[1]; rat, in vivo",−
same,"Behavior of gene caused by administration of chemical substance, Gene No. 4095","[1]; rat, in vivo",−
same,"Behavior of gene caused by administration of chemical substance, Gene No. 4218","[1]; rat, in vivo",−
same,"Behavior of gene caused by administration of chemical substance, Gene No. 4846","[1]; rat, in vivo",−
same,"Behavior of gene caused by administration of chemical substance, Gene No. 4973","[1]; rat, in vivo",−
same,"Behavior of gene caused by administration of chemical substance, Gene No. 5600","[1]; rat, in vivo",−
same,"Behavior of gene caused by administration of chemical substance, Gene No. 5634","[1]; rat, in vivo",−
same,"Behavior of gene caused by administration of chemical substance, Gene No. 5726","[1]; rat, in vivo",−
same,"Behavior of gene caused by administration of chemical substance, Gene No. 5878","[1]; rat, in vivo",−
same,"Behavior of gene caused by administration of chemical substance, Gene No. 6026","[1]; rat, in vivo",−
same,"Behavior of gene caused by administration of chemical substance, Gene No. 6182","[1]; rat, in vivo",−
same,"Behavior of gene caused by administration of chemical substance, Gene No. 6303","[1]; rat, in vivo",−
same,"Behavior of gene caused by administration of chemical substance, Gene No. 6620","[1]; rat, in vivo",−
same,"Behavior of gene caused by administration of chemical substance, Gene No. 6742","[1]; rat, in vivo",−
same,Liver carcinogenicity,[2],Cr−
same,Carcinogenicity,[3],C−
